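Where inhibition never reached the appropriate level, the endpoint shown equals the highest concentration tested. Otherwise, values were interpolated linearly from a five-concentration, 48-hour dose response in 96-well plates. At the GI50, growth is halved.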 Calls of active or inactive are those of the source. Cut-off read from the data, not from the text of the source: active = GI50 up to about 1.1 µM and inactive = higher.
What was measured:
Assay in all cases: NCI anticancer screen, dose series, 48 h
[1] = system: 786-0
[2] = system: ACHN
[3] = system: CCRF-CEM
[4] = system: COLO 205
[5] = system: HCC 2998
[6] = system: IGROV-1
[7] = system: K562
[8] = system: LXFL 529
[9] = system: OVCAR-4
[10] = system: SN12C
[11] = system: SNB-75
[12] = system: U-251
[13] = system: UACC-257
[14] = system: UO-31
[15] = system: A498
[16] = system: OVCAR-5
[17] = system: DU-145
[18] = system: MDA-MB-231
[19] = system: MDA-MB-435
[20] = system: T47D

Measured: GI50

CCC1CCC2CCCC(C)N12 (centres undefined)
inactive: [1] > 100 µM | [2] > 100 µM | [3] > 100 µM | [4] > 100 µM | [5] > 100 µM | [6] > 100 µM | [7] > 100 µM | [8] > 100 µM | [9] > 100 µM | [10] > 100 µM | [11] > 100 µM | [12] > 100 µM | [13] > 100 µM | [14] > 100 µM

O=C1NC2(CCCC2)/C(=N\O)C12CCCC2
inactive: [1] > 100 µM | [15] > 100 µM | [2] > 100 µM | [3] > 100 µM | [4] > 100 µM | [6] > 100 µM | [7] > 100 µM | [8] > 100 µM | [9] > 100 µM | [16] > 100 µM | [10] > 100 µM | [11] > 100 µM | [12] > 100 µM | [13] > 100 µM | [14] > 100 µM

NCCOCn1cc(Cc2cccc(OCc3ccccc3)c2)c(=O)[nH]c1=O
inactive: [1] 53.6 µM | [15] > 10 µM | [2] > 10 µM | [3] 44.1 µM | [4] 92.5 µM | [5] 42.2 µM | [6] > 100 µM | [7] 42.8 µM | [8] > 100 µM | [9] 90.6 µM | [10] > 100 µM | [11] 79.8 µM | [12] > 100 µM | [14] > 100 µM

CN(C)c1ccc(/C=C2\N=C(NN)NC2=O)cc1
inactive: [1] 75.2 µM | [15] 98.2 µM | [2] > 100 µM | [3] 65.8 µM | [4] > 100 µM | [17] 76.7 µM | [5] 80.9 µM | [6] 75.5 µM | [7] 10.1 µM | [18] 59.3 µM | [19] 58.6 µM | [9] 79.4 µM | [16] > 100 µM | [10] > 100 µM | [11] > 100 µM | [20] 44.4 µM | [12] 47.6 µM | [13] > 100 µM | [14] 94.6 µM

COC(=O)c1cc(C#N)[nH]c1-c1ccsc1
inactive: [1] > 100 µM | [15] 95.5 µM | [2] 85.7 µM | [3] 76.2 µM | [4] > 100 µM | [17] > 100 µM | [5] > 100 µM | [6] > 100 µM | [7] 53.1 µM | [18] > 100 µM | [19] > 100 µM | [9] > 100 µM | [16] > 100 µM | [10] > 100 µM | [11] > 100 µM | [20] 25.1 µM | [12] > 100 µM | [13] 54.3 µM | [14] 46.3 µM

Cc1ccc(O)c(C(c2cccc(C(c3cc(C)ccc3O)c3cc(C)ccc3O)c2)c2cc(C)ccc2O)c1
inactive: [1] 1.69 µM | [15] 1.53 µM | [2] 1.73 µM | [3] 2.38 µM | [4] 1.21 µM | [17] 1.44 µM | [5] 1.86 µM | [6] 1.56 µM | [7] 1.81 µM | [18] 1.25 µM | [19] 1.75 µM | [9] 2.22 µM | [16] 1.69 µM | [10] 1.83 µM | [11] 1.93 µM | [20] 1.98 µM | [12] 1.77 µM | [13] 1.94 µM | [14] 1.91 µM

[O-][S+]1Cc2ccccc2CSS1 (centres undefined)
inactive: [1] 15.7 µM | [15] 56.5 µM | [2] 12.8 µM | [4] 14.2 µM | [5] 26.1 µM | [6] 29.2 µM | [7] 12.3 µM | [8] 14.1 µM | [9] 16.6 µM | [16] 16.3 µM | [10] 14.4 µM | [11] 19.6 µM | [12] 14.3 µM | [13] 14.5 µM | [14] 17.9 µM

O=C1CCC2(c3ccc(F)cc3)Nc3cc(Cl)ccc3N12 (centres undefined)
inactive: [1] > 100 µM | [15] > 100 µM | [2] 54.6 µM | [3] > 100 µM | [4] > 100 µM | [6] > 100 µM | [7] 44.6 µM | [8] 65.5 µM | [9] 48.6 µM | [10] > 100 µM | [11] > 100 µM | [12] > 100 µM | [13] 90.4 µM | [14] 94.2 µM

Reference: ChEMBL document CHEMBL1201862, “PubChem BioAssay data set” (2004)
